Consider 2 compounds from article PMC10226046, “Prodrug Strategies for the Development of β-L-5-((E)-2-Bromovinyl)-1-((2S,4S)-2-(hydroxymethyl)-1,3-(dioxolane-4-yl))uracil (L-BHDU) against Varicella Zoster Virus (VZV)” (Journal of Medicinal Chemistry, 2023).

SMILES strings stand for the structures. pEC50: −log10 of the molar value. Like-named read-outs stand apart in the source and are kept apart here.

The conditions of data set [1]: mouse, in vivo; cited from earlier work.
Details of data set [2]: method as in PMID 25051026. The following applies: mice treated with L-BHDU; cited from earlier work.
In data set [3] the test system is VZV-ORF57-Luc.
Another data set deals with VZV-ORF57-ΔTS. The data set is described as follows: microbe, parasite or virus in culture. Format: cell-based, Varicella zoster virus. The settings on record: Human alphaherpesvirus 3, ARPE-19.
Data set [4] in a line: Oral pharmacokinetic absorption study in BALB/c mice (plasma, LC-MS/MS). The data set is classed as in vivo. The following applies: both sexes, mouse, analyte L-BHDU in plasma, 11.4 mg/kg L-BHDU oral, BALB/c mice. As to the method: A pharmacokinetic absorption study was performed in BALB/c mice (Charles River). A single equimolar dose of 22.5 mg/kg POM-L-BHDU-MP or 11.4 mg/kg L-BHDU was dissolved in Cremophor–dimethyl sulfoxide (DMSO)–saline (1:1:8) and administered by oral gavage to two groups of mice with equal numbers of male and female mice (N = 15 each male and female).
Plasma was separated from red blood cells and immediately frozen at −80 °C.
This animal protocol #282 was approved by the IACUC at SUNY Upstate Medical University, which has been fully accredited by AAALAC since 7/31/1999. This method was previously used to evaluate L-BHDU effects on 5-fluorouracil metabolism.[16] Briefly, a single equimolar dose of 22.5 mg/kg POM-L-BHDU-MP or 11.4 mg/kg L-BHDU was dissolved in Cremophor–DMSO–saline (1:1:8) and administered by oral gavage to two groups of BALB/c mice (Charles River) with equal numbers of male and female mice (N = 15 each male and female). Six untreated mice were used for blank controls and were labeled time 0. At 20, 40, 60, and 120 min, three mice from the POM-L-BHDU-MP group and three mice from the L-BHDU group were anesthetized with inhaled isoflurane and then exsanguinated by cardiac puncture. Blood samples were collected into a tube containing heparin. Plasma was separated from red blood cells by centrifugation at 10,000 rpm for 5 min. Plasma was transferred to a new tube and immediately frozen at −80 °C.
Plasma samples were thawed, and exactly 0.95 mL was removed for analysis. The internal standard azidothymidine was added to mouse plasma samples at a final concentration of 20 ng/mL. Proteins were precipitated from the plasma by adding 2× volumes of methanol, then the samples were clarified by centrifugation. The supernatants were dried using an N-EVAP 116 analytical nitrogen evaporator and then reconstituted with 50% methanol in water. LC-MS/MS was used to analyze the concentrations of POM-L-BHDU-MP, L-BHDU, and L-BHDU-MP. Calibration curves were made using BALB/c mouse plasma (Innovative Research, Inc. Novi MI) prior to analyzing the experimental samples.
The primary stock solutions for the calibration were prepared at 0.5 mg/mL for L-BHDU, 1 mg/mL for POM-L-BHDU-MP, and 1 mg/mL for L-BHDU-MP. The primary stock solutions were diluted to working solutions that were in turn used to spike the biological matrix of interest. L-BHDU calibration points were 100.0, 400.0, 800.0, 1000.0, 4000.0, 6000.0, 8000.0, 10,000.0, and 12,000.0 ng/mL. L-BHDU-MP calibration points were 100.0, 200.0, 400.0, 800.0, 1000.0, 2000.0, 4000.0, 6000.0, and 8000.0 ng/mL. The ISTD working solution of AZT was prepared at 20 ng/mL. The standard stock solutions were stored in −80 °C freezer until used. […] The samples were analyzed in a negative ESI mode. […]

For the next data set, the system named is VZV-ORF57-ΔTK. The data set is described as follows: microbe, parasite or virus in culture. Format: cell-based, Varicella zoster virus. The settings on record: Human alphaherpesvirus 3, ARPE-19.
The subject of data set [5] is VZV-ORF57-Luc. Put plainly: microbe, parasite or virus in culture. The settings on record: Human alphaherpesvirus 3, ARPE-19. Format: cell-based, Varicella zoster virus.
Data set [6] relates to VZV. The following applies: 15 mg/kg/day, SCID-hu mouse with human fetal skin xenografts; cited from earlier work.
The nature of data set [7]: Neutral red dye uptake cytotoxicity assay in ARPE-19 cells. The following applies: human.
Another data set deals with VZV-ORF57-ΔTKTS. Put plainly: microbe, parasite or virus in culture. The data set is classed as cell-based, Varicella zoster virus. The settings on record: Human alphaherpesvirus 3, ARPE-19.
For data set [8], the system named is VZV-ORF57-Luc. Put plainly: microbe, parasite or virus in culture. The following applies: Human alphaherpesvirus 3, ARPE-19, cell-free VZV-ORF57-Luc, ARPE-19 cells, 72 hpi, bioluminescence imaging.
On the set-up of data set [9]: method as in PMID 25051026. The following applies: measured in various mouse organs; cited from earlier work.
Data set [10] has as its system human foreskin fibroblasts (HFFs). Details: method as in PMID 25051026. The settings on record: cited from earlier work.
Data set [11] relates to VZV. Details: method as in PMID 25051026. The following applies: VZV in human foreskin fibroblasts (HFFs); cited from earlier work.
The mark [12] stands for this setting: selectivity index = CC50/EC50, ARPE-19 cells.

In the case of `O=c1[nH]c(=O)n([C@@H]2CO[C@H](CO)O2)cc1/C=C/Br` [L-BHDU (1), β-L-5-((E)-2-bromovinyl)-1-((2S,4S)-2-(hydroxymethyl)-1,3-(dioxolane-4-yl))uracil], the “well tolerated up to (dose)” value in data set [1] was “up to 150 mg/kg”. Besides, the “5-FU accumulation in treated mice” value in data set [2] was “did not accumulate”. The “SI (CC50/EC50)” value in the data set on VZV-ORF57-Luc [3] and in the data set on VZV-ORF57-Luc [3] (setting [12]) was >3878 each time. In addition, the pEC50 is 7.55 with VZV-ORF57-ΔTS; < 5.70 in the data set on VZV-ORF57-ΔTK; 6.74 in the data set on VZV-ORF57-Luc [5]; < 5.70 with VZV-ORF57-ΔTKTS; 7.59 with VZV-ORF57-Luc [8]. In data set [4], the peak level (Cmax at 2 h) was 7100 ng/mL. Further, in [4], the time to peak (Tmax) at 2 h is 2 h. Moreover, the AUC at 2 h in data set [4] (0 to 120 min) is 12700 ng·h/mL. Moreover, the “effect on VZV replication” value with VZV [6] is “effectively reduced VZV replication”. Moreover, the CC50 at 72 h in [7] is > 100000 nM. Moreover, in data set [9], the brain penetration result was “did not penetrate the brain”. In [10] (HFFs), the “not cytotoxic up to” value is given as “up to 200 μM”.

Turning to `CC(C)[C@@H](N)C(=O)OC[C@H]1OC[C@@H](n2cc(/C=C/Br)c(=O)[nH]c2=O)O1.Cl` [L-BHDU-L-valine (17), L-BHDU-5′-O-L-valyl Ester Hydrochloride], the “SI (CC50/EC50)” value was >3322 with VZV-ORF57-Luc [3]; >3322 in the data set on VZV-ORF57-Luc [3] (setting [12]); > 3322 in the data set on VZV-ORF57-Luc [3] (selectivity index = CC50/EC50, ARPE-19 cells, listed as 17). Also, the pEC50 in the data set on VZV-ORF57-Luc [3] (cell-free VZV-ORF57-Luc, ARPE-19 cells, 72 hpi, bioluminescence imaging) was 7.52; with VZV [11], 7.52; in the data set with VZV-ORF57-Luc [8], 7.52. In [7], the CC50 at 72 h was > 100000 nM. The CC50 in [10] was > 200000 nM.

Broadly, the pEC50 is −log10 of the EC50, conventionally taken in molar units. As usually defined, the Cmax is the highest concentration seen after dosing. One may read the Tmax as the time from dosing to the highest level. The AUC is the area under the concentration-time curve, a measure of exposure. High values mean high exposure, low ones low exposure.
